In article PMC4585259 (Frontiers in Pharmacology, 2015):
Like-named read-outs stand apart in the source and are kept apart here. Each block holds one compound with its values, some of them ahead of it.

Molecular target: T1, rNav1.2 sodium channels (Rattus norvegicus, UniProt P04775)
T1 construct: host or cells: HEK-293
Assay: QPatch automated patch clamp, inhibition of sodium currents evoked by 5 Hz trains at three extracellular pH values
Assay type: cell-based
Conditions: for class of pH-dependence pattern (cluster analysis): Ward's method on 18 variables of affinity, reversibility, onset; for τoffset / τonset: concentration (lidocaine 300 μM, memantine 30 μM)
Outline: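 Trains of 5 steps from −90 to −10 mV every 20 s. Apparent affinity, onset/offset time constants (single-exponential fits) and reversibility (w−i)/(c−i) were derived from single-concentration data.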

[1] = pH 6.0, single concentration (lidocaine 300 μM, memantine 30 μM), geometric mean of 5, read-out: apparent affinity
[2] = pH 7.3, single concentration (lidocaine 300 μM, memantine 30 μM), geometric mean of 5, read-out: apparent affinity
[3] = pH 8.6, single concentration (lidocaine 300 μM, memantine 30 μM), geometric mean of 5, read-out: apparent affinity
[4] = pH=6.0, cc 100 mM, read-out: Apparent Affinity
[5] = pH=7.3, cc 100 mM, read-out: Apparent Affinity
[6] = pH=8.6, cc 100 mM, read-out: Apparent Affinity
[7] = pH=6.0, cc 30 mM, read-out: Apparent Affinity
[8] = pH=7.3, cc 30 mM, read-out: Apparent Affinity
[9] = pH=8.6, cc 30 mM, read-out: Apparent Affinity

T1 sequence (P04775 whole entry): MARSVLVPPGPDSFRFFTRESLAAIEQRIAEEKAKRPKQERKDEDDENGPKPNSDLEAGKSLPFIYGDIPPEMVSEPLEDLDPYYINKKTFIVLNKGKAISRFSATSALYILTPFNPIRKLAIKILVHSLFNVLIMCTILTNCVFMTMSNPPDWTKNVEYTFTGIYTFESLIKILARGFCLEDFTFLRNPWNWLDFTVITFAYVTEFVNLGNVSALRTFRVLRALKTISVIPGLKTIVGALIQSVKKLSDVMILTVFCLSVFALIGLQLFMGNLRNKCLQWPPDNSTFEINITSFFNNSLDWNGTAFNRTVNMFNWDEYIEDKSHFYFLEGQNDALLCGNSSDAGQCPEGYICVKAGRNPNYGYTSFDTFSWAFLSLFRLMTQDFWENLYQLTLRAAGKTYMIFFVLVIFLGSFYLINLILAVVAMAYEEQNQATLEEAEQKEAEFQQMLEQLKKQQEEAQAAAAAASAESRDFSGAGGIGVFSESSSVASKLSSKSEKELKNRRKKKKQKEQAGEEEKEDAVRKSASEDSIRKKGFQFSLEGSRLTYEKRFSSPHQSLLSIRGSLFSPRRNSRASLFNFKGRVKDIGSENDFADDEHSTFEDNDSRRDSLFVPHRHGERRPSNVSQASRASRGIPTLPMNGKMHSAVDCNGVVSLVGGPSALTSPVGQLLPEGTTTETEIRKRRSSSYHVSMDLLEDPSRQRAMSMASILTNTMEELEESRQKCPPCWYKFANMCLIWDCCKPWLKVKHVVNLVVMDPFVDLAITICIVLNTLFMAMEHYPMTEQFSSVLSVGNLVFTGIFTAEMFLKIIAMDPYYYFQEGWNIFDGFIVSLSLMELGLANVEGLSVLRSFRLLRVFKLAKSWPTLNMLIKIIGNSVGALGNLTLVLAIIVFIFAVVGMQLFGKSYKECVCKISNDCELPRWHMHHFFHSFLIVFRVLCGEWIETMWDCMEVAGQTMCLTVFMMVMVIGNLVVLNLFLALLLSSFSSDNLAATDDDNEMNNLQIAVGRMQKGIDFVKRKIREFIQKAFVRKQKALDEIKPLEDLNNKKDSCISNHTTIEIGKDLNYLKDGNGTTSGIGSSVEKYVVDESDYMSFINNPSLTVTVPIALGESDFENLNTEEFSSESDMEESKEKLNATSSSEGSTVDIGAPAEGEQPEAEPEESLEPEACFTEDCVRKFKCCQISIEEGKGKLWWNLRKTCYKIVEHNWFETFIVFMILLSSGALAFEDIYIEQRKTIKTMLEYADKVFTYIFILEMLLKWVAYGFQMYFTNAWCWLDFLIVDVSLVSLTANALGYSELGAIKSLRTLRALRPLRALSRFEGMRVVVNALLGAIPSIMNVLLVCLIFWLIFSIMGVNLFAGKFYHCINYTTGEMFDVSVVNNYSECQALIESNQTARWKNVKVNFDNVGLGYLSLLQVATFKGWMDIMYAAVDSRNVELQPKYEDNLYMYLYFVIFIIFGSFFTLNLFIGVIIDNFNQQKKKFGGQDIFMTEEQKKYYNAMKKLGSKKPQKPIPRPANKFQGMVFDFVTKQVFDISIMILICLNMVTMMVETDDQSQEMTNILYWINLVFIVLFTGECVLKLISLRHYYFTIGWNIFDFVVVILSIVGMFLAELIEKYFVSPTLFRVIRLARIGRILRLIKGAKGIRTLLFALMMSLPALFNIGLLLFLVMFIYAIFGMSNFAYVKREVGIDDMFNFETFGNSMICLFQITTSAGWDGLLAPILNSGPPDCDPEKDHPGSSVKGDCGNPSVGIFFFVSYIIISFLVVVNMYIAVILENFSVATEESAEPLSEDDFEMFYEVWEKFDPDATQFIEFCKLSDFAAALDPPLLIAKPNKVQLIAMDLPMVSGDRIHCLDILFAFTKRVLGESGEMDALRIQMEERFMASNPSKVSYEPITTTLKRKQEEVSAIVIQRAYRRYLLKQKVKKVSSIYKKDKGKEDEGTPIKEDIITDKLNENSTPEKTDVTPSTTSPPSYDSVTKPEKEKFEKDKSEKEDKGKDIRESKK

class of pH-dependence pattern (cluster analysis): Class D
τoffset (pH 6.0): 14.40 s
τonset (pH 6.0): 12.20 s
Kd [1]: 317 µM
τoffset (pH 7.3): 13.00 s
τonset (pH 7.3): 8.80 s
Kd [2]: 141 µM
τoffset (pH 8.6): 15.00 s
τonset (pH 8.6): 10.40 s
Kd [3]: 37.7 µM
effect of acidic pH on recovery (pH = 6.0 vs 7.3, in words): decreased recovery
Compound: CN1CCN2c3ncccc3Cc3ccccc3C2C1 (stereo not shown) [mirtazapine]
Ratio Reversibility (pH 6.0/7.3, cc 100 mM): 0.272
Ratio Tau Offset (pH 6.0/7.3, cc 100 mM): 1.108
Ratio Tau Onset (pH 6.0/7.3, cc 100 mM): 1.386
log Ratio App Aff (pH 6.0/7.3, cc 100 mM): 0.353
Ratio Reversibility (pH 6.0/8.6, cc 100 mM): 0.495
Ratio Tau Offset (pH 6.0/8.6, cc 100 mM): 0.960
Ratio Tau Onset (pH 6.0/8.6, cc 100 mM): 1.173
log Ratio App Aff (pH 6.0/8.6, cc 100 mM): 0.925
Ratio Reversibility (pH 7.3/8.6, cc 100 mM): 1.821
Ratio Tau Offset (pH 7.3/8.6, cc 100 mM): 0.867
Ratio Tau Onset (pH 7.3/8.6, cc 100 mM): 0.846
log Ratio App Aff (pH 7.3/8.6, cc 100 mM): 0.572
Reversibility (pH=6.0, cc 100 mM): 0.26
Kd [4]: 317 µM
Reversibility (pH=7.3, cc 100 mM): 0.95
Kd [5]: 141 µM
Reversibility (pH=8.6, cc 100 mM): 0.52
Kd [6]: 37.7 µM

class of pH-dependence pattern (cluster analysis): Class G
alkalization-induced recovery (neutral-to-alkalic solution exchange, in words): prominent alkalization-induced recovery
reversibility at all three pH values (pH 6.0, 7.3 and 8.6): below 0.6
τoffset (pH 6.0): 13.20 s
τonset (pH 6.0): 12.60 s
Kd [1]: 38.2 µM
τoffset (pH 7.3): 13.50 s
τonset (pH 7.3): 14.40 s
Kd [2]: 17.4 µM
τoffset (pH 8.6): 16.00 s
τonset (pH 8.6): 14.60 s
Kd [3]: 28.9 µM
Compound: CCc1nn(CCCN2CCN(c3cccc(Cl)c3)CC2)c(=O)n1CCOc1ccccc1 [nefazodone]
Ratio Reversibility (pH 6.0/7.3, cc 30 mM): 0.854
Ratio Tau Offset (pH 6.0/7.3, cc 30 mM): 0.978
Ratio Tau Onset (pH 6.0/7.3, cc 30 mM): 0.875
log Ratio App Aff (pH 6.0/7.3, cc 30 mM): 0.341
Ratio Reversibility (pH 6.0/8.6, cc 30 mM): 1.152
Ratio Tau Offset (pH 6.0/8.6, cc 30 mM): 0.825
Ratio Tau Onset (pH 6.0/8.6, cc 30 mM): 0.863
log Ratio App Aff (pH 6.0/8.6, cc 30 mM): 0.122
Ratio Reversibility (pH 7.3/8.6, cc 30 mM): 1.349
Ratio Tau Offset (pH 7.3/8.6, cc 30 mM): 0.844
Ratio Tau Onset (pH 7.3/8.6, cc 30 mM): 0.986
log Ratio App Aff (pH 7.3/8.6, cc 30 mM): -0.220
Reversibility (pH=6.0, cc 30 mM): 0.51
Kd [7]: 38.2 µM
Reversibility (pH=7.3, cc 30 mM): 0.59
Kd [8]: 17.4 µM
Reversibility (pH=8.6, cc 30 mM): 0.44
Kd [9]: 28.9 µM

class of pH-dependence pattern (cluster analysis): Class A
τoffset (pH 6.0): 29.60 s
τonset (pH 6.0): 12.00 s
Kd [1]: 206 µM
τoffset (pH 7.3): 24.20 s
τonset (pH 7.3): 19.00 s
Kd [2]: 225 µM
τoffset (pH 8.6): 17.80 s
τonset (pH 8.6): 18.00 s
Kd [3]: 243 µM
Compound: COc1ccccc1OCC(O)CN1CCN(CC(=O)Nc2c(C)cccc2C)CC1 (stereo not shown) [ranolazine]
Ratio Reversibility (pH 6.0/7.3, cc 100 mM): 0.873
Ratio Tau Offset (pH 6.0/7.3, cc 100 mM): 1.223
Ratio Tau Onset (pH 6.0/7.3, cc 100 mM): 0.632
log Ratio App Aff (pH 6.0/7.3, cc 100 mM): -0.038
Ratio Reversibility (pH 6.0/8.6, cc 100 mM): 1.042
Ratio Tau Offset (pH 6.0/8.6, cc 100 mM): 1.663
Ratio Tau Onset (pH 6.0/8.6, cc 100 mM): 0.667
log Ratio App Aff (pH 6.0/8.6, cc 100 mM): -0.072
Ratio Reversibility (pH 7.3/8.6, cc 100 mM): 1.194
Ratio Tau Offset (pH 7.3/8.6, cc 100 mM): 1.360
Ratio Tau Onset (pH 7.3/8.6, cc 100 mM): 1.056
log Ratio App Aff (pH 7.3/8.6, cc 100 mM): -0.034
Reversibility (pH=6.0, cc 100 mM): 0.76
Kd [4]: 206 µM
Reversibility (pH=7.3, cc 100 mM): 0.88
Kd [5]: 225 µM
Reversibility (pH=8.6, cc 100 mM): 0.73
Kd [6]: 243 µM

The remaining lines, values behind:

Compound: CNCCC(Oc1ccccc1OC)c1ccccc1 (stereo not shown) [nisoxetine]
Kd (Apparent Affinity, pH=6.0, cc 100 mM): 210 µM
Kd (Apparent Affinity, pH=7.3, cc 100 mM): 80.1 µM
Kd (Apparent Affinity, pH=8.6, cc 100 mM): 28.6 µM
class of pH-dependence pattern (cluster analysis): Class F
Kd (apparent affinity, pH 6.0, single concentration (lidocaine 300 μM, memantine 30 μM), geometric mean of 5): 210 µM
Kd (apparent affinity, pH 7.3, single concentration (lidocaine 300 μM, memantine 30 μM), geometric mean of 5): 80.1 µM
Kd (apparent affinity, pH 8.6, single concentration (lidocaine 300 μM, memantine 30 μM), geometric mean of 5): 28.6 µM
Ratio Reversibility (pH 6.0/7.3, cc 100 mM): 1.076
Ratio Tau Offset (pH 6.0/7.3, cc 100 mM): 0.636
Ratio Tau Onset (pH 6.0/7.3, cc 100 mM): 0.550
log Ratio App Aff (pH 6.0/7.3, cc 100 mM): 0.419
Ratio Reversibility (pH 6.0/8.6, cc 100 mM): 1.973
Ratio Tau Offset (pH 6.0/8.6, cc 100 mM): 0.947
Ratio Tau Onset (pH 6.0/8.6, cc 100 mM): 1.245
log Ratio App Aff (pH 6.0/8.6, cc 100 mM): 0.867
τoffset (pH 6.0): 19.60 s
τonset (pH 6.0): 13.20 s
Ratio Reversibility (pH 7.3/8.6, cc 100 mM): 1.833
Ratio Tau Offset (pH 7.3/8.6, cc 100 mM): 1.489
Ratio Tau Onset (pH 7.3/8.6, cc 100 mM): 2.263
log Ratio App Aff (pH 7.3/8.6, cc 100 mM): 0.448
τoffset (pH 7.3): 30.82 s
τonset (pH 7.3): 23.99 s
τoffset (pH 8.6): 20.70 s
τonset (pH 8.6): 10.60 s
Reversibility (pH=6.0, cc 100 mM): 0.75
Reversibility (pH=7.3, cc 100 mM): 0.69
Reversibility (pH=8.6, cc 100 mM): 0.38

Compound: Fc1ccc([C@@H]2CCNC[C@H]2COc2ccc3c(c2)OCO3)cc1 [paroxetine]
class of pH-dependence pattern (cluster analysis): Class C
effect of alkalic pH on onset/offset kinetics (in words): acceleration of onset
Ratio Reversibility (pH 6.0/7.3, cc 30 mM): 1.674
Ratio Tau Offset (pH 6.0/7.3, cc 30 mM): 0.896
Ratio Tau Onset (pH 6.0/7.3, cc 30 mM): 1.411
log Ratio App Aff (pH 6.0/7.3, cc 30 mM): 0.413
Ratio Reversibility (pH 6.0/8.6, cc 30 mM): 6.394
Ratio Tau Offset (pH 6.0/8.6, cc 30 mM): 1.191
Ratio Tau Onset (pH 6.0/8.6, cc 30 mM): 2.000
log Ratio App Aff (pH 6.0/8.6, cc 30 mM): 0.762
τoffset (pH 6.0): 33.83 s
τonset (pH 6.0): 47.12 s
Kd [1]: 49.6 µM
Ratio Reversibility (pH 7.3/8.6, cc 30 mM): 3.820
Ratio Tau Offset (pH 7.3/8.6, cc 30 mM): 1.329
Ratio Tau Onset (pH 7.3/8.6, cc 30 mM): 1.418
log Ratio App Aff (pH 7.3/8.6, cc 30 mM): 0.349
τoffset (pH 7.3): 37.75 s
τonset (pH 7.3): 33.39 s
Kd [2]: 19.2 µM
τoffset (pH 8.6): 28.40 s
τonset (pH 8.6): 23.55 s
Kd [3]: 8.57 µM
Reversibility (pH=6.0, cc 30 mM): 0.65
Kd [7]: 49.6 µM
Reversibility (pH=7.3, cc 30 mM): 0.39
Kd [8]: 19.2 µM
Reversibility (pH=8.6, cc 30 mM): 0.10
Kd [9]: 8.57 µM

Compound: O=C1NC(=O)C(c2ccccc2)(c2ccccc2)N1 [phenytoin]
class of pH-dependence pattern (cluster analysis): Class A
Ratio Reversibility (pH 6.0/7.3, cc 300 mM): 1.014
Ratio Tau Offset (pH 6.0/7.3, cc 300 mM): 1.227
Ratio Tau Onset (pH 6.0/7.3, cc 300 mM): 0.985
log Ratio App Aff (pH 6.0/7.3, cc 300 mM): 0.026
Ratio Reversibility (pH 6.0/8.6, cc 300 mM): 1.313
Ratio Tau Offset (pH 6.0/8.6, cc 300 mM): 0.993
Ratio Tau Onset (pH 6.0/8.6, cc 300 mM): 0.650
log Ratio App Aff (pH 6.0/8.6, cc 300 mM): 0.109
τoffset (pH 6.0): 21.26 s
τonset (pH 6.0): 13.00 s
Kd [1]: 830 µM
Ratio Reversibility (pH 7.3/8.6, cc 300 mM): 1.295
Ratio Tau Offset (pH 7.3/8.6, cc 300 mM): 0.809
Ratio Tau Onset (pH 7.3/8.6, cc 300 mM): 0.660
log Ratio App Aff (pH 7.3/8.6, cc 300 mM): 0.083
τoffset (pH 7.3): 17.32 s
τonset (pH 7.3): 13.20 s
Kd [2]: 781 µM
τoffset (pH 8.6): 21.40 s
τonset (pH 8.6): 20.00 s
Kd [3]: 646 µM
Reversibility (pH=6.0, cc 300 mM): 0.83
Kd (pH=6.0, cc 300 mM, read-out: Apparent Affinity): 830 µM
Reversibility (pH=7.3, cc 300 mM): 0.82
Kd (pH=7.3, cc 300 mM, read-out: Apparent Affinity): 781 µM
Reversibility (pH=8.6, cc 300 mM): 0.63
Kd (pH=8.6, cc 300 mM, read-out: Apparent Affinity): 646 µM
